Experimental data from publication PMC5493638, “Adiponectin is an endogenous anti-fibrotic mediator and therapeutic target” (Scientific Reports, 2017).
Residues, ends and D or L forms follow the SMILES beside them.

Legend:
[1] = test system: skin fibroblasts; assay: Cytotoxicity, LDH assay; assay type: cell-based, human; details: concentrations of ADP355 used for these experiments (10 μM)
Text: Primary cultures of healthy adult and SSc skin fibroblasts, and neonatal fibroblasts, were established by explantation. The clinical features of the subjects are shown in Supplementary Table 5. Protocols for skin biopsies were approved by the Institutional Review Board at Northwestern University. Embryonic fibroblasts from AMP protein kinase (AMPK)^−/− mice and wild-type mice were a gift from Yu-Ying He (University of Chicago). When cultures reached confluence, serum-free media supplemented with 0.1% bovine serum albumin (BSA) were added prior to TGF-β2 (Peprotech, Rocky Hill, NJ) or/and ADP355 (10 μM)[37], and incubation continued for a further 24 h. Cytotoxicity was evaluated using LDH assays (Biovision).

[2] = test system: skin fibroblasts; assay: In vitro competition binding with labeled peptides; parameters: species or system human; details: unlabeled ADP355 100 μg/ml 10 min, then ADP355-Dy675 5 μg/ml 30 min, confocal microscopy
Protocol: To evaluate in vitro peptide binding, skin fibroblasts seeded on coverslips were preincubated with unlabeled ADP355 (100 μg/ml) for 10 min, followed by labeled ADP355-Dy675 (5 μg/ml), or labeled control peptide (Api88 Dy675, gift from Daniel Knappe, Leipzig, Germany) for 30 min. Cells were fixed in 4% phosphate buffered paraformaldehyde (PFA) and visualized using a Nikon A1 confocal microscope. To evaluate in vivo biodistribution, C57BL6/J mice were injected i.p. with Dy675-coupled peptide (20 μg/mouse or […]) and 10 min later, dorsal skin was harvested and processed for immunofluorescence analysis.

[3] = test system: [SBE]4-luc (canonical Smad pathway); assay: [SBE]4-luc transient transfection reporter assay; assay type: cell-based, human; details: transiently transfected fibroblasts, ADP355 and TGF-β 24 h, luciferase
Protocol: Fibroblasts at early confluence were transfected with [SBE]4-luc plasmids or indicated reporter constructs using SuperFect Transfection (Qiagen)[61]. Cultures were incubated in serum-free media containing 0.1% BSA for 16 h, followed by ADP355 and TGF-β for a further 24 h[61]. Whole cell lysates were assayed for luciferase activities using the dual-luciferase reporter assay system (Promega, Madison, WI). In each experiment, Renilla luciferase pRL-TK (Promega) was cotransfected as control for transfection efficiency. Experiments were performed in triplicate and repeated at least twice with consistent results. For RNAi-mediated transcript silencing, fibroblasts were transfected with target-specific short interfering siRNA specific for AdipoR1/R2 (Dharmacon, Lafayette, CO) or scrambled control siRNA (10 nM, unless otherwise indicated). Twenty-four hours following transfection, fresh media containing TGF-β (2 ng/ml) or ADP355 (10 μM) were added to the cultures and incubation continued for a further 24 h.

[4] = test system: 3D human skin equivalents populated with normal skin fibroblasts; assay: 3D human skin equivalents, fibrotic responses (qPCR); assay type: cell-based; details: peptide 10 uM with TGF-β2 for 6 days
Protocol: Normal human skin fibroblasts (3 × 10^5cells) were mixed with rat tail Type I collagen (4 mg/ml, BD Biosciences, San Jose, CA) and seeded in 12-well plates, [60]. Epidermal keratinocytes (6 × 10^6 cells) were seeded on the collagen plugs. Forty-eight hours later, the 3D organotypic cultures were placed on metal grids (BD Biosciences) and maintained for 5 days at an air-medium interface. Peptides (10 uM) were then added in media with or without TGF-β, and incubations continued for a further six days. Experiments were harvested, and RNA was isolated for analysis.
(§1) RNA was isolated from skin samples using RNAeasy Fibrous Tissue Mini kit (Qiagen, Valencia, CA), or from fibroblast cultures, using the RNeasy Plus mini kit (Qiagen), and processed for qPCR as described. mRNA levels were normalized to the levels of 18 S RNA or GAPDH, and the relative amounts were calculated using the 2^−ΔΔCt method.

[5] = test system: phospho-AMP kinase (Thr172); assay: AMPK phosphorylation in normal fibroblasts (immunofluorescence); assay type: cell-based, human; details: ADP355 60 min, confocal immunofluorescence
[6] = Ex vivo stability in serum; assay type: in vitro ADME; details: 30 min incubation with serum, intact peptide, data not shown
[7] = Tolerability of chronic treatment in mice; assay type: in vivo, mouse; details: 1 mg/kg/d i.p. for up to 28 days
Text: (§2) Bleomycin (BLM) or phosphate buffered saline (PBS) was given by daily subcutaneous (s.c.) injection for 14 consecutive days[55]. In some experiments, mice were given a single s.c. injection of adenovirus expressing constitutively-active TGF-ß1 (TGFß1^223/225 3x10^9 PFU/ml) or beta-galactosidase (5x10^9 PFU/ml)[56]. Peritoneal fibrosis was induced by i.p. injections of 0.1% chlorhexidine gluconate (CG; Wako Pure Chemical Industries, Osaka, Japan) dissolved in 15% ethanol/PBS given on alternate days for 21 days[35]. Synthetic peptides targeting AdipoR (ADP355 or ADP27)[37] or vehicle (PBS) at the indicated concentrations were administered by daily i.p. injection for 14 or 24 days. Each experimental group consisted of 4–8 mice, and experiments were repeated at least two times with consistent results. At the end of the experiments, mice were sacrificed and blood and tissue were collected for analysis.

[8] = test system: C57BL6/J mice; assay: Bleomycin-induced skin fibrosis in mice; assay type: in vivo, mouse
Text: as §2
Harvested skin or parietal peritoneal membrane samples were fixed in PFA, embedded in paraffin and 4 μm thick sections were stained with hematoxylin and eosin (H&E). Collagen deposition and organization were assessed using Masson’s Trichrome staining. Thickness of the dermis, dWAT or peritoneal membrane were determined at five randomly selected locations/slide using ImageJ software.
Collagen content of lesional skin was determined by measuring the hydroxyproline content in 6-mm punch biopsy samples (BioVision, Milpitas, CA) (16). Serum levels of adiponectin were determined by ELISA which measures all adiponectin isoforms (Millipore; #EZMADP-60K)[9].
as §1

[9] = cited from earlier work
Text: (§3) An alternate potential strategy is to mimic adiponectin biological activity using small molecules.

[10] = test system: AdipoR-positive cancer cell lines; details: cited from earlier work
Text: as §3

[11] = test system: AdipoR; details: screening of 66 overlapping 10-amino acid peptides of the globular domain of adiponectin; cited from earlier work
Text: as §3

[12] = daily i.p. ADP355 initiated concurrently with BLM

## CCC[C@H](NC(=O)[C@@H]1CCCN1C(=O)[C@@H](NC(=O)[C@H](N)CC(N)=O)[C@@H](C)CC)C(=O)N[C@@H](CC(C)C)C(=O)N[C@@H](Cc1ccc(O)cc1)C(=O)N[C@H](CO)C(=O)N[C@@H](Cc1ccccc1)C(=O)N[C@@H](C)C(=O)N[C@H](CO)C(N)=O [ADP355, H-DAsn-Ile-Pro-Nva-Leu-Tyr-DSer-Phe-Ala-DSer-NH2] (HELM PEPTIDE1{[dN].I.P.[Nva].L.Y.[dS].F.A.[dS].[am]}$$$$V2.0)
[1]
  cell viability: No effects on cell viability
[2]
  binding to fibroblasts: Specific binding
[3]
  stimulation of [SBE]4-luc activity by TGF-ß: abrogated
[4]
  fibrotic responses in 3D human skin equivalents: attenuated fibrotic responses
[5]
  AMPK phosphorylation: induced AMPK phosphorylation
[6]
  ex vivo stability in serum: excellent ex vivo stability, with detectable levels of intact peptide even after 30 min incubation with serum
[7]
  tolerability of chronic treatment: well tolerated, with no signs of toxicity
[8]; 0.2 mg/kg/d, multiple independent experiments
  skin fibrosis, low dose: Significant attenuation
[8]; 1 mg/kg/d, multiple independent experiments
  skin fibrosis, high dose: Significant attenuation
[8]; ADP355 alone, without BLM
  dermal thickness, peptide by itself: no significant effect
[8]; [12]
  BLM-induced collagen accumulation: significantly mitigated
  BLM-induced dWAT attrition: significantly mitigated
[8]; daily i.p. ADP355 initiated concurrently with BLM (s.c. 14 d), continued for 21 d
  BLM-induced increase in dermal thickness: significantly mitigated
[8]; daily i.p. ADP355 initiated concurrently with BLM, qPCR of lesional skin
  BLM-induced fibrotic gene expression: significantly mitigated
[8]; treatment initiated at day 10 of BLM, data not shown
  established dermal fibrosis: reversed established dermal fibrosis
[9]
  hypoadiponectinemia and loss of subcutaneous adipose tissue induced by HIV protease inhibitors: reverse
[10]
  anti-tumor effects: anti-tumor effects
[11]
  AdipoR agonist activity: potent AdipoR agonist
